{"source": "patent US11712433B2", "about": "“Compositions comprising PKM2 modulators and methods of treatment using the same” (priority 2019, dated 2023)", "key": {"[1]": {"tested_on": "MC38 tumors", "test": "Metabolite levels in treated versus vehicle-treated MC38 tumors", "type": "in vivo, mice", "conditions": "treated compared to vehicle-treated MC38 tumors", "description": "Potential downstream biomarkers, including metabolism, immune gene alterations and immune phenotyping are currently under evaluation using LC-MS/MS, NanoString and flow cytometry."}, "[2]": {"tested_on": "A549 cells", "test": "GSH-Glo glutathione levels in A549 cells (Example 10)", "type": "cell-based", "conditions": "concentration of 10, 24 hours, relative to DMSO", "protocol": "A549 cells were prepared according to Example 3 above. […] Cells were treated for 24 hours, and then glutathione levels were determined using a GSH-Glo assay kit and procedure from Promega (catalog #V6912)."}, "[3]": {"tested_on": "A549 lung cancer cells", "test": "A549 xenograft, traditional versus serine- and glycine-depleted diet (Example 4)", "type": "in vivo, athymic nude mice", "conditions": "100 mpk oral gavage qd x 21", "description": "The traditional diet control was the Baker Amino Acid diet (catalog #5CC7, Test Diet) and the depleted diet was a modified Baker Amino Acid diet which compensated for serine and glycine depletion with increases in all remaining amino acids (catalog #5BJX, Test Diet)."}}, "data": [{"smiles": "Nc1cccc(F)c1CN(CCC1CCS(=O)(=O)CC1)C(=O)c1cc(C(F)(F)F)n[nH]1", "note": "[compound of Structure (I)]", "values": [{"measurement": "levels of glucose 6-phosphate in tumors", "setting": "[1]", "value": "decreased"}, {"measurement": "levels of glucose in tumors", "setting": "[1]", "value": "Increased"}, {"measurement": "levels of lactate in tumors", "setting": "[1]", "value": "decreased"}, {"measurement": "levels of phosphoenolpyruvate in tumors", "setting": "[1]", "value": "decreased"}, {"measurement": "levels of phosphoglycerate in tumors", "setting": "[1]", "value": "decreased"}, {"measurement": "glutathione levels", "setting": "[2]", "value": "decreased levels of glutathione"}, {"measurement": "body weight", "setting": "[3]", "value": "no significant body weight reduction or fluctuation"}, {"measurement": "tumor volume", "setting": "[3]; serine- and glycine-depleted diet versus traditional diet", "value": "best reduction of tumor volume"}]}]}
